Experiment: Non-clinical bridging studies of toxicity, PK and local tolerability
Details: in vivo
Text: In addition, the FluidCrystal® vehicle and the excipient glycerol dioleate have been evaluated.

CCCCCCCC/C=C\CCCCCCCC(=O)OCC(CO)OC(=O)CCCCCCC/C=C\CCCCCCCC (stereo not shown) [glycerol dioleate]
main effects observed in non-clinical studies: reversible injection-site reactions

— patent US20250281569A1, “COMPOSITIONS AND METHODS FOR TREATING NEUROENDOCRINE TUMORS” (CAMURUS AB, priority 2021, published 2025)
